In brackets after ≈: the same amount, converted by molar mass.
Legend:
[1] = Encapsulation efficiency and loading efficiency in liposome by HPLC (Test Example 2); type: physicochemical; details: drug solution in 40% EG (1 mg/mL), comparative example
Description: Subsequently, after the eggplant flask was immersed in a hot bath at 60° C. for five minutes, a gPTX solution (1 ml) (Cremophor:ethanol:ultra-pure water=12:12:76, volume ratio) adjusted to a concentration of 20 mg/ml, or a PTX solution (Cremophor:ethanol:ultra-pure water=12:12:76, volume ratio) at a concentration of 2 mg/ml was added thereto to dissolve the lipid film, thus preparing a multilamellar vesicle (MLV).
In a comparative example, the above-mentioned 1 mg/ml gPTX solution (10 mM phosphate buffer containing 40% (volume) ethylene glycol) was used in place of the 20 mg of gPTX solution to encapsulate gPTX in a liposome.
The efficiency of paclitaxel monoglycoside encapsulated in the obtained liposome or immunoliposome was calculated as follows. First, the standard curve of each of the gPTX and PTX was obtained. […]
Next, 0.1% Triton X-100 ( 1/10 volume) was added to a prepared liposome, and the liposome was broken by sonication. Thereafter, the solution (10 μl) was measured by HPLC, and the encapsulated drug amount was obtained using the standard curve. […]
Using the following formulae (1) and (2), the encapsulation efficiency (EE) and loading efficiency (LE) were calculated based on the obtained drug amount. […]

[2] = system: HT-29, colon adenocarcinoma cell; test: Anti-cancer activity, MTT assay on HT-29 (Test Example 9); type: cell-based; details: for IC100 / IC50: 72 hours; for IC50: Homo sapiens; for IT50: drug added at IC100
Description: (§1) In the same manner as in Test Example 3, anti-cancer activity was measured. SK-BR-3, which is a human-derived breast cancer cell, and HT-29, which is a colon adenocarcinoma cell, were used. Specifically, cells were seeded to a 96 well-plate at 5000 cells/well, and incubated for 24 hours. Then, PTX, gPTX, gPTX-L, and gPTX-IL were separately added at different concentrations, followed by incubation.
(§2) 72 hours later, the percentage of cell viability was calculated by an MTT assay. First, the concentration (IC50) at which 50% of the cells die was obtained from the survival curve. Subsequently, the time (IT50) at which 50% of the cells die was obtained from the survival curve. After the cells were seeded, PTX, gPTX, gPTX-L, or gPTX-IL was added at a concentration attaining IC100, which was obtained from the survival curve. Incubation was then performed for 1, 2, 6, 12, 24, 48, or 72 hours, and then medium exchange was performed. 72 hours after the drug addition, the MTT assay was performed in the same manner as in the above experiment to obtain the survival rate, and calculate the IT50 therefrom.

[3] = system: SK-BR-3, human-derived breast cancer cell; test: Anti-cancer activity, MTT assay on SK-BR-3 (Test Example 9); type: cell-based; details: for IC50: Homo sapiens; for IC50 / IT50: SK-BR-3; for IC50 / IC100: SK-BR3, 72 hours; for IT50: drug added at IC100
Description: as §1, §2

[4] = Solubility in mixed solvent Cremophor EL:ethanol:PBS (pH 7.4) 12:12:76 (Test Example 1); type: physicochemical; details: for solubility: Cremophor EL:ethanol:PBS 12:12:76 mixed solvent, pH 7.4, aqueous with cosolvent or surfactant or cyclodextrin, ethanol, Cremophor EL, PBS pH 7.4 (12:12:76); for Concentration at which dissolved: Cremophor:ethanol:PBS (pH 7.4) 12:12:76
Description: Powdery gPTX and paclitaxel (hereinbelow, referred to as PTX in the Examples) produced by the method disclosed in NPL 1 were individually weighed in predetermined amounts, followed by addition of ethanol (120 μL) and mixing using a vortex. Cremophor® EL (available from Wako Pure Chemical Industries. Ltd.) (120 μL) was further mixed with each solution liquid, and then PBS (pH 7.4, 760 μL) was mixed. The solubility of each of the gPTX and PTX was confirmed.

[5] = system: SK-BR-3, human-derived breast cancer cell; test: Anti-cancer activity, MTT assay (Test Example 3); type: cell-based; details: PTX, gPTX dissolved in DMSO, liposomes prepared with gPTX in 40% ethylene glycol solution; for IC50: Homo sapiens
Description: IC50 of each of the PTX and gPTX dissolved in DMSO, and gPTX-L and gPTX-IL prepared by using gPTX dissolved in a 40% (volume) ethylene glycol solution was measured by an MTT assay. As a test target cell, SK-BR-3, which is a human-derived breast cancer cell, was used. IT50 was also calculated. IT50 indicates the half of time required for attaining the drug concentration at which all of the cells die, and can be easily calculated based on the survival curve obtained by plotting the percentage of cell viability to the time axis.

[6] = Solubility in 10 mM phosphate buffer containing 10 to 40% ethylene glycol (Test Example 1); type: physicochemical; details: aqueous with cosolvent or surfactant or cyclodextrin
Description: In all cases, gPTX was mixed so that the concentration became 1 mg/mL.

ICR-nu/nu mouse = test: Body weight shift and survival in HT-29 bearing mice (Test Example 11); type: in vivo; details: total dose of gPTX 150 mg/kg; N=4
Description: (§3) HT-29 cells were subcutaneously administered at 3.0×10^6 cells to each ICR-nu/nu mouse (male, 5 weeks old). When the tumor volume became about 50 to 200 mm^3, the above gPTX, the gPTX-L produced in Test Example 7, the gPTX-IL produced in Test Example 9, trastuzumab, the liposome (empty L) encapsulating no gPTX and having no antibody (trastuzumab) produced in Test Example 9, the liposome (empty IL) encapsulating […] and having an antibody (trastuzumab) produced in Test Example 9, a CEP buffer, or PBS was administered via tail vein two times at an interval of 3 hours (N=4). The dose per each was 200 μl/20 g. The total dose of gPTX was 150 mg/kg, and the total dose of trastuzumab was 200 mg/kg. The tumor volume shift after administration was observed. […] The tumor volume was calculated from the formula (3) below. Tumor volume=(tumor smallest diameter^2×tumor longest diameter)/2 (3)
The body weight shift and the survival rate in each group were measured. FIGS. 6 to 9 show the results.

HT-29 tumor = test: In vivo anti-cancer activity, tumor volume (Test Example 11); design: species or system ICR-nu/nu mouse; details: tail vein two times, interval 3 hours; total gPTX 150 mg/kg, trastuzumab 200 mg/kg; N=4
Description: as §3

BALB/c mouse = details: in vivo
Description: Specifically, gPTX, gPTX-L, a CEP buffer (Cremophor:ethanol:ultra-pure water=12:12:76; volume ratio), or PBS was administered via tail vein to each BALB/c mouse (female, 6 weeks old) two times with an interval of three hours (N=4). The dose per each was 200 μl/20 g. The total dose of gPTX was 150 or 100 mg/kg in view of gPTX. Observation over time was performed during and after the administration.

**Q.** For `CC(=O)O[C@H]1C(=O)[C@@]2(C)[C@H]([C@H](OC(=O)c3ccccc3)[C@]3(O)C[C@H](OC(=O)[C@H](O)[C@@H](NC(=O)c4ccccc4)c4ccccc4)C(C)=C1C3(C)C)[C@]1(OC(C)=O)CO[C@@H]1C[C@@H]2O` [PTX, paclitaxel], which “EE (encapsulation efficiency)” value [1] is on record?
**A.** not encapsulated in the liposome

**Q.** What about the IC100 [2] of the same molecule?
**A.** 10 nM

**Q.** What about the IC50 [2] of the same molecule?
**A.** 1.3 ± 0.5 nM

**Q.** And the “IT50” value [2]?
**A.** 11.9 h

**Q.** What about the IC50 [3] of the same molecule?
**A.** 5.5 ± 1.3 nM

**Q.** And the IC100 [3]?
**A.** 30 nM

**Q.** And the “IT50” value [3]?
**A.** 9.8 h

**Q.** And the solubility ([4]; Concentration 2 mg/ml)?
**A.** > 2 mg/mL

**Q.** And the solubility ([4]; Concentration 3 mg/ml)?
**A.** < 3 mg/mL

**Q.** What about the solubility ([4]; Concentration 10 mg/ml) of the same molecule?
**A.** < 3 mg/mL

**Q.** What about the solubility ([4]; Concentration 20 mg/ml) of the same molecule?
**A.** < 3 mg/mL

**Q.** And the “Concentration at which dissolved” value [4]?
**A.** about 2 mg/ml

**Q.** What about the IC50 [5] of the same molecule?
**A.** 5.91 nM

**Q.** What about the “IT50” value [5] of the same molecule?
**A.** 15.9 h

**Q.** Which solubility ([6]; Ethylene glycol (EG) 10%, 10 mM phosphate buffer, read-out: Solubility of 1 mg/mL gPTX) does the source give for `CC(=O)O[C@H]1C(=O)[C@@]2(C)C([C@H](OC(=O)c3ccccc3)[C@@]3(O)CC1=C(C)C(OC(=O)[C@H](O)[C@@H](NC(=O)c1ccccc1)c1ccccc1)C3)[C@]1(OC(C)=O)CO[C@@H]1C[C@H]2OC(=O)COC1OC(CO)C(O)C(O)C1O` (stereo partly drawn) [gPTX, 7-α-glucosyloxyacetylpaclitaxel] here?
**A.** < 1 mg/mL

**Q.** What about the solubility ([6]; Ethylene glycol (EG) 20%, 10 mM phosphate buffer, read-out: Solubility of 1 mg/mL gPTX) of the same molecule?
**A.** < 1 mg/mL

**Q.** And the solubility ([6]; Ethylene glycol (EG) 30%, 10 mM phosphate buffer, read-out: Solubility of 1 mg/mL gPTX)?
**A.** < 1 mg/mL

**Q.** What about the solubility ([6]; Ethylene glycol (EG) 40%, 10 mM phosphate buffer, read-out: Solubility of 1 mg/mL gPTX) of the same molecule?
**A.** > 1 mg/mL

**Q.** What about the solubility ([6]; PBS containing 40% (volume) ethylene glycol, read-out: Solubility of gPTX) of the same molecule?
**A.** ~1 mg/mL (≈ 956 µM)

**Q.** What about the IC100 [2] of the same molecule?
**A.** 50 nM

**Q.** And the IC50 [2]?
**A.** 11 ± 0.8 nM

**Q.** And the “IT50” value [2]?
**A.** 9.6 h

**Q.** What about the IC50 [3] of the same molecule?
**A.** 18.9 ± 1.1 nM

**Q.** What about the IC100 [3] of the same molecule?
**A.** 100 nM

**Q.** And the “IT50” value [3]?
**A.** 8.3 h

**Q.** And the Body weight shift (ICR-nu/nu mouse)?
**A.** remarkable body weight loss

**Q.** And the Deaths after administration (ICR-nu/nu mouse)?
**A.** two mice died in three hours after the administration, and one died one week after the administration

**Q.** What about the “Tumor growth inhibition effect (tumor volume)” value (HT-29 tumor) of the same molecule?
**A.** remarkably excellent anti-tumor growth inhibition effect

**Q.** What about the solubility ([4]; Concentration 2 mg/ml) of the same molecule?
**A.** > 20 mg/mL

**Q.** What about the solubility ([4]; Concentration 10 mg/ml) of the same molecule?
**A.** > 20 mg/mL

**Q.** What about the solubility ([4]; Concentration 20 mg/ml) of the same molecule?
**A.** > 20 mg/mL

**Q.** What about the solubility ([4]; Concentration 30 mg/ml) of the same molecule?
**A.** < 30 mg/mL

**Q.** And the “Concentration at which dissolved” value [4]?
**A.** 20000 µg/mL

**Q.** What about the IC50 [5] of the same molecule?
**A.** 46 nM

**Q.** What about the “IT50” value [5] of the same molecule?
**A.** 18.7 h

**Q.** What about the “Body weight change (FIG. 4)” value (BALB/c mouse) of the same molecule?
**A.** significant body weight loss

**Q.** And the “Mice dead one day after the administration (FIG. 3)” value (BALB/c mouse)?
**A.** three

Reference: patent publication US10682330B2, “Method for producing liposome encapsulating paclitaxel monoglycoside and/or docetaxel monoglycoside” (ENSUIKO SUGAR REFINING CO., LTD., priority 2012, dated 2020)
